Data from US10556907B2 (AbbVie Inc., priority 2015, dated 2020).
Blank lines part the entries; values can stand above or below the compound they belong to.

Experiments:
[1] = biological target: T1, human EDG3 (S1PR3) receptor (Homo sapiens, UniProt Q99500); test: Method 2: Aequorin assay, cell pool CHO-A2-S1P3 Mix; format: cell-based; conditions: (2): determined with method 2
T1 construct: expressed in transfected cells; host or cells: CHO (cell pool CHO-A2-S1P3 Mix)
Description: (§1) Agonistic activity was measured using two different methods, described below.
(§2) Genetically Engineered Cells
(§3) Cell clone CHO-A21-Edg1 #17 carries the transgenes human EDG1 (S1PR1) receptor (Accession number NP_001391.2), mitochondrially targeted Aequorin (active part corresponds to accession number 1SL8_A) and chimaeric Gaqi5=Gaq modified with the 5 C-terminal amino-acids replaced with those of the Gai protein (DCGLF). CHO-A2-S1P3 Mix is a cell pool ectopically expressing human EDG3 (S1PR3) receptor (Accession number NP_005217.2) mitochondrially targeted Aequorin (active part has a sequence similar to accession number AY601106.1) and GNA16 (Accession number NP_002059.3). Cell clone CHO-A21-EDG8 #12 carries the transgenes human EDG8 (S1PR5) receptor (Accession number NP_110387.1), mitochondrially expressed Aequorin (active part corresponds to accession number 1SL8_A) and chimaeric Gaqi5 (Gaq modified to present the 5 last amino-acids of the Gai protein “DCGLF”; see above). Cells are grown to mid-log phase in culture medium (HAM's F12, 10% FBS, 100 IU/mL penicillin, 100 μg/mL streptomycin, 250 μg/mL Zeocin, 400 μg/mL G418). 18 hours prior to frozen cells preparation, the medium is changed to remove the antibiotics.
(§4) 18 hours prior to the test, vials of frozen cells are quickly thawed in a 37° C. water bath, cells are recovered by centrifugation and resuspended in assay buffer (DMEM/HAM's F12 with HEPES, without phenol red+0.1% fatty acid-free BSA). Cells are gently agitated in suspension overnight at RT in presence of 5 μM of Coelenterazine h (Molecular Probes). On the day of the test, cells are diluted to their final working concentrations in assay buffer and agitated in suspension for 1 h at RT. Cells are then placed in the luminescence reader (Hamamatsu Functional Drug Screening System 6000, FDSS6000). During cells incubation, compounds are prepared in 100% DMSO, and subsequently diluted in assay buffer. Compounds are then dispensed in the assay plate (black, clear-bottom, 384-well plate). After binding of agonists to the human S1P receptor the intracellular calcium concentration increases and binding of calcium to the Aequorin/Coelenterazine complex leads to an oxidation reaction of coelenterazine, which results in the production of […], coelenteramide, CO2 and light (Dmax 469 nm). The luminescent response is dependent on the agonist concentration. For agonist testing, 30 μL of cell suspension are injected on 30 μL of test compound or reference agonist in the assay plate. The resulting emission of light is recorded for 90 seconds using the FDSS6000. Dose response curves with the reference compounds are performed before testing the compounds. S1P is the reference agonist and JTE-013 the reference antagonist for S1P2. […]
(§5) Luminescence data are integrated over the reading interval for agonist and antagonist modes. To standardize the emission of recorded light (determination of the “100% signal”) across plates and across different experiments, some of the wells contain 100 μM digitonin or a saturating concentration of ATP (20 μM). Plates also contain the reference agonist at a concentration equivalent to the EC80 obtained during the test validation and the EC100. Dose-response data from test compounds were analyzed with XLfit (IDBS) software using nonlinear regression applied to a sigmoidal dose-response model and the following equation: • XL Fit fit Model 203: 4 Parameter Logistic Model • A: Bottom • B: TOP • C: LogEC50 • D: Hill fit=(A+((B−A)/(1+(((10^C)/x)^D)))) inv=((10^C)/((((B−A)/(y−A))−1)^(1/D))) res=(y−fit)

[2] = biological target: T2, human EDG8 (S1PR5) receptor (Homo sapiens, UniProt Q9H228); test: Method 2: Aequorin assay, cell clone CHO-A21-EDG8 #12; format: cell-based; conditions: agonist potency, determined with method 2 (symbols E-G); read-out: S1P5 EC50 range
T2 construct: expressed in transfected cells; host or cells: CHO (clone CHO-A21-EDG8 #12)
T2 sequence (Q9H228 whole entry): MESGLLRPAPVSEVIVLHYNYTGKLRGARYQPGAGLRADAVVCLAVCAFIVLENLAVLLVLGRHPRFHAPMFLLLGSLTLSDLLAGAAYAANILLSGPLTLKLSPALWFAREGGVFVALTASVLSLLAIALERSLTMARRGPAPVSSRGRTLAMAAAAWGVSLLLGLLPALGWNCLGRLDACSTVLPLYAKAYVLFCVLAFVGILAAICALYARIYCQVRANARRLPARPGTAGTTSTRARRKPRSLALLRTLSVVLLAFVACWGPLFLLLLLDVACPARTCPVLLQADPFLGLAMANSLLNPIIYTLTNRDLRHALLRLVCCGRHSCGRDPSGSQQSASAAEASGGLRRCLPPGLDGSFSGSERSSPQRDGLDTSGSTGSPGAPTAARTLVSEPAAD
Description: as §1, §2, §3, §4, §5

[3] = biological target: T3, human EDG1 (S1PR1) receptor (Homo sapiens, UniProt P21453); test: Method 2: Aequorin assay, cell clone CHO-A21-Edg1 #17; format: cell-based; conditions: (2): determined with method 2; read-out: S1P1 EC50
T3 construct: expressed in transfected cells; host or cells: CHO (clone CHO-A21-Edg1 #17)
T3 sequence (P21453 whole entry): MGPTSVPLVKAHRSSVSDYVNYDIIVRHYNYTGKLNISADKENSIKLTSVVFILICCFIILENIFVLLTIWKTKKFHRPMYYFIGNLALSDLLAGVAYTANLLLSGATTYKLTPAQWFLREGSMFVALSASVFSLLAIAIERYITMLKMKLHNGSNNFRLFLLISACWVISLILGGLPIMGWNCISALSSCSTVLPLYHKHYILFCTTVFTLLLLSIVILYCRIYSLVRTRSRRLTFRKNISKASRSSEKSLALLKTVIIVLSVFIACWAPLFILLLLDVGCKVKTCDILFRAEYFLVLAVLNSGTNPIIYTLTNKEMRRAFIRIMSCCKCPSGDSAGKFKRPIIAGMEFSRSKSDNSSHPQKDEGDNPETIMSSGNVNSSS
Description: as §1, §2, §3, §4, §5

human S1PR4 receptor = biological target: T4, human S1PR4 receptor (Homo sapiens, UniProt O95977); test: Method 1: intracellular Ca2+ release (FLIPR, Calcium 5) in recombinant CHO-K1 cells; format: cell-based; conditions: (1): determined with method 1; read-out: S1P4 EC50
T4 construct: host or cells: CHO-K1
T4 sequence (O95977 1-384): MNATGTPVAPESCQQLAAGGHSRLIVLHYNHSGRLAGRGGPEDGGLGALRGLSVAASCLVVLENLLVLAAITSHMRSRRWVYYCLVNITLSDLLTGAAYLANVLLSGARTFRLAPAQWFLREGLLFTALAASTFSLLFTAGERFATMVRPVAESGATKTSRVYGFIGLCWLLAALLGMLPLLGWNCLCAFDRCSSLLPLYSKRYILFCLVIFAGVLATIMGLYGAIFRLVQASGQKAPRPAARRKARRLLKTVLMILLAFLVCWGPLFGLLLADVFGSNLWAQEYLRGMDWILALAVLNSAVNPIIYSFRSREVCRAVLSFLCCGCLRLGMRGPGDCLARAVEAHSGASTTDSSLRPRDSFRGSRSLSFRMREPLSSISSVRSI
In short: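 Agonist EC50; CHO-K1 + Gq/i5 + aequorin; Calcium 5 dye 1 h 37 °C, 45 min RT; serial-dilution compound add; FLIPR read; normalized to phospho-fingolimod.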

[4] = in vivo; cited from earlier work
monocytes = conditions: cited from earlier work
[5] = in vivo; cited from earlier work; remark: listed apart in the source

T1 sequence (Q99500 whole entry): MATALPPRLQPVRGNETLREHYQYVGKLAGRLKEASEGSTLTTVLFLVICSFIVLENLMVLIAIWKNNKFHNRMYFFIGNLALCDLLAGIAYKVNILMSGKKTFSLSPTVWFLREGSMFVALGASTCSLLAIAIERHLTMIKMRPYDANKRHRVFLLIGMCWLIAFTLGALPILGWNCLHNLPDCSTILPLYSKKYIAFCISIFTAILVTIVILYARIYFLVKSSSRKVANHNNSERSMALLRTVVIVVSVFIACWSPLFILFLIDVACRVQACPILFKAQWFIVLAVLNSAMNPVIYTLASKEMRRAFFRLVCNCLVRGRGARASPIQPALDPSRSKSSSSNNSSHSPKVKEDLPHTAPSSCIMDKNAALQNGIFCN

EC50 [1]: > 1 µM
EC50 [2]: 1 to 10 µM
EC50 [3]: > 1 µM
Compound: O=C(O)CCN1Cc2ccc(-c3ccc(OCc4ccccc4)cc3)nc2C1 [Compound 202, 3-(2-(4-(benzyloxy)phenyl)-5H-pyrrolo[3,4-b]pyridin-6(7H)-yl)propanoic acid]

EC50 [1]: > 1 µM
EC50 [2]: 0.1 to 1 µM
EC50 [3]: > 1 µM
Compound: O=C(O)CCN1CCc2nc(-c3ccc(OCc4ccccc4)c(C(F)(F)F)c3)ccc2C1 [Compound 143, 3-(2-(4-(benzyloxy)-3-trifluoromethylphenyl)-7,8-dihydro-1,6-naphthyridin-6(5H)-yl)propanoic acid]

EC50 [1]: > 1 µM
EC50 [2]: 0.1 to 1 µM
EC50 [3]: > 1 µM
Compound: O=C(O)CCN1CCc2nc(-c3ccc(OCc4ccccc4)c(F)c3)ccc2C1 [Compound 137, 3-(2-(4-(benzyloxy)-3-fluorophenyl)-7,8-dihydro-1,6-naphthyridin-6(5H)-yl)propanoic acid]

EC50 [1]: > 1 µM
EC50 [2]: 0.1 to 1 µM
EC50 [3]: > 1 µM
Compound: O=C(O)CCN1CCc2nc(-c3ccc(OCc4ccccc4)c(Cl)c3)ccc2C1 [Compound 144, 3-(2-(4-(benzyloxy)-3-chlorophenyl)-7,8-dihydro-1,6-naphthyridin-6(5H)-yl)propanoic acid]

EC50 [1]: > 1 µM
EC50 [2]: 1 to 10 µM
EC50 [3]: > 1 µM
Compound: O=C(O)CCN1CCc2nc(-c3ccc(OCc4cccc(F)c4F)cc3)ncc2C1 [Compound 69, 3-(2-(4-((2,3-difluorobenzyl)oxy)phenyl)-7,8-dihydropyrido[4,3-d]pyrimidin-6(5H)-yl)propanoic acid]

EC50 [1]: > 1 µM
EC50 [2]: 0.1 to 1 µM
EC50 [3]: > 1 µM
Compound: Cc1cc(-c2ccc3c(n2)CCN(CCC(=O)O)C3)ccc1OCc1ccccc1 [Compound 139, 3-(2-(4-(benzyloxy)-3-methylphenyl)-7,8-dihydro-1,6-naphthyridin-6(5H)-yl)propanoic acid]

EC50 [1]: > 1 µM
EC50 [2]: 0.1 to 1 µM
EC50 [3]: > 1 µM
Compound: O=C(O)CCN1CCc2nc(-c3ccc(OCc4c(Cl)cccc4Cl)cc3)ncc2C1 [Compound 70, 3-(2-(4-((2,6-dichlorobenzyl)oxy)phenyl)-7,8-dihydropyrido[4,3-d]pyrimidin-6(5H)-yl)propanoic acid]

Further lines, the compound ahead of its results:

Compound: O=C(O)C1CC(N2CCc3nc(-c4ccc(OCc5cccc(F)c5)cc4)ncc3C2)C1 (centres unmarked) [Compound 52, 3-(2-(4-((3-fluorobenzyl)oxy)phenyl)-7,8-dihydropyrido[4,3-d]pyrimidin-6(5H)-yl)cyclobutanecarboxylic acid]
EC50 [1]: > 1 µM
EC50 [2]: 1 to 10 µM
EC50 [3]: > 1 µM
EC50 (human S1PR4 receptor): > 1 µM

Compound: O=C(O)CCN1CCc2nc(-c3ccc(OCc4ccccc4F)c(Cl)c3)ccc2C1 [Compound 141]
EC50 [1]: > 1 µM
EC50 [2]: 0.1 to 1 µM
EC50 [3]: > 1 µM

Compound: CCCCCCCCc1ccc(CCC(N)(CO)CO)cc1 [FTY720/FIngolimod]
nociceptive behavior in neuropathic pain models [4]: able to reduce nociceptive behavior
Aβ-induced migration of monocytes to sites of injury (monocytes): inhibits such migration
Aβ-induced memory deficits [5]: able to modulate Aβ-induced memory deficits

Compound: COc1cc(OCc2ccccc2)ccc1-c1ccc2c(n1)CCN(CCC(=O)O)C2 [Compound 138, 3-(2-(4-(benzyloxy)-2-methoxyphenyl)-7,8-dihydro-1,6-naphthyridin-6(5H)-yl)propanoic acid]
EC50 [1]: > 1 µM
EC50 [2]: 1 to 10 µM
EC50 [3]: > 1 µM

Compound: CC(CN1CCc2nc(-c3ccc(OCc4ccccc4)cc3)ncc2C1)C(=O)O (centres unmarked) [Compound 6, 3-(2-(4-(benzyloxy)phenyl)-7,8-dihydropyrido[4,3-d]pyrimidin-6(5H)-yl)-2-methylpropanoic acid]
EC50 [1]: > 1 µM
EC50 [2]: 0.1 to 1 µM
EC50 [3]: > 1 µM

Compound: O=C(O)CCN1CCc2nc(-c3ccc(OCc4ccccc4)cc3C(F)(F)F)ccc2C1 [Compound 136, 3-(2-(4-(benzyloxy)-2-trifluoromethylphenyl)-7,8-dihydro-1,6-naphthyridin-6(5H)-yl)propanoic acid]
EC50 [1]: > 1 µM
EC50 [2]: 1 to 10 µM
EC50 [3]: > 1 µM

Compound: COc1cc(-c2ccc3c(n2)CCN(CCC(=O)O)C3)ccc1OCc1ccccc1 [Compound 142, 3-(2-(4-(benzyloxy)-3-methoxyphenyl)-7,8-dihydro-1,6-naphthyridin-6(5H)-yl)propanoic acid]
EC50 [1]: > 1 µM
EC50 [2]: 1 to 10 µM
EC50 [3]: > 1 µM

Compound: O=C(O)CCN1CCc2nc(-c3ccc(OCc4ccc(F)cc4)c(Cl)c3)ccc2C1 [Compound 140, 3-(2-(3-chloro-4-((4-fluorobenzyl)oxy)phenyl)-7,8-dihydro-1,6-naphthyridin-6(5H)-yl)propanoic acid]
EC50 [1]: > 1 µM
EC50 [2]: 0.1 to 1 µM
EC50 [3]: > 1 µM

Compound: CC(CN1Cc2ccc(-c3ccc(OCc4ccccc4)cc3)nc2C1)C(=O)O (centres unmarked) [Compound 199, 3-(2-(4-(benzyloxy)phenyl)-5H-pyrrolo[3,4-b]pyridin-6(7H)-yl)-2-methylpropanoic acid]
EC50 [1]: > 1 µM
EC50 [2]: 1 to 10 µM
EC50 [3]: > 1 µM

Compound: FC(F)(F)c1cccc(-c2noc(-c3cc(-c4ccccc4)c(C(F)(F)F)s3)n2)c1 [SEW2817]
nociceptive behavior in neuropathic pain models [4]: fails to have an effect

Compound: O=C(O)CCN1CCc2cc(-c3ccc(OCc4ccccc4)cc3)nnc2C1 [Compound 207, 3-(3-(4-(benzyloxy)phenyl)-5,6-dihydropyrido[3,4-c]pyridazin-7(8H)-yl)propanoic acid]
EC50 [1]: > 1 µM
EC50 [2]: 1 to 10 µM
EC50 [3]: > 1 µM

Compound: CC(CN1CCc2nc(-c3ccc(OCc4c(Cl)cccc4Cl)cc3)ncc2C1)C(=O)O (centres unmarked) [Compound 7, 3-(2-(4-(2,6-dichlorobenzyloxy)phenyl)-7,8-dihydropyrido[4,3-d]pyrimidin-6(5H)-yl)-2-methylpropanoic acid]
EC50 [1]: > 1 µM
EC50 [2]: 0.1 to 1 µM
EC50 [3]: > 1 µM
